In the experiment the target is T1, human APJ receptor (Homo sapiens, UniProt P35414).
T1 construct: expressed in transfected cells; host or cells: HEK293
T1 sequence (P35414 1-380): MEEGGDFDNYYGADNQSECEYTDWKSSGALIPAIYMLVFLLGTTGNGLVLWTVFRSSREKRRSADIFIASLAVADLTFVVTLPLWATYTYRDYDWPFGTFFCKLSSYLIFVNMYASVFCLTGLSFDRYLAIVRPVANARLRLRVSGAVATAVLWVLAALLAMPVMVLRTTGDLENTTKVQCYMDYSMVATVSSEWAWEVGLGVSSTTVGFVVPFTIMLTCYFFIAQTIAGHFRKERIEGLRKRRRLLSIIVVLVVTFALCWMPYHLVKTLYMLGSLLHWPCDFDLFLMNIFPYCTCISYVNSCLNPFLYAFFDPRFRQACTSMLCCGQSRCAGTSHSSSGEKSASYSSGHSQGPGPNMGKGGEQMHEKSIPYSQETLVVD
Briefly: Intracellular cAMP Accumulation Assay (APJ hcAMP, HTRF). Format: cell-based. The method, boiled down:
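Stably transfected HEK293 cells (5,000/well) incubated 30 min at room temperature with serially diluted compound, […] and 2 μM forskolin. cAMP measured by HTRF after 60 min with detection reagents, quantified against a cAMP standard curve; EC50 from variable-slope sigmoidal fit of inhibition of forskolin-stimulated cAMP.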
On the technique in general: In TR-FRET formats the signal depends on donor and acceptor labels being close together.

The mark [1] stands for this setting: read-out: hAPJ cAMP EC50 Potency range.
Setting [2] is: HEK293 cells stably expressing human APJ receptor, inhibition of forskolin-mediated cAMP production, read-out: Human APJ cAMP EC50 potency range.
Setting [3] is: human APJ, intracellular cAMP accumulation, read-out: hAPJ cAMP EC50 Potency range.

Read-outs that look alike come from different tables or passages of the source.

The term EC50 denotes the midpoint of the concentration-response curve. On to `CCCCc1nc(=O)c(C(=O)N2CCC(c3ncccc3F)C2)c(O)n1-c1c(OC)cccc1OC` (single isomer, unassigned) [Example 367, 2-butyl-1-(2,6-dimethoxyphenyl)-5-(3-(3-fluoropyridin-2-yl)pyrrolidine-1-carbonyl)-6-hydroxypyrimidin-4(1H)-one], for which the EC50 under setting [1] lay within 0.01 to 10 nM.

Regarding `COc1cccc(OC)c1-n1c(COC(C)(C)C)nc(=O)c(C(=O)N2CCC(c3ccccc3C#N)C2)c1O` (single isomer, unassigned) [Example 368, 2-(1-(2-(tert-butoxymethyl)-1-(2,6-dimethoxyphenyl)-6-hydroxy-4-oxo-1,4-dihydropyrimidine-5-carbonyl)pyrrolidin-3-yl)benzonitrile], under setting [1], the EC50 fell in the range of 0.01 to 10 nM.

Take `COc1cccc(OC)c1-n1c(COC(C)(C)C)nc(=O)c(C(=O)N2CCC(c3ccccc3C#N)C2)c1O` (single isomer, unassigned) [Example 369, 2-(1-(2-(tert-butoxymethyl)-1-(2,6-dimethoxyphenyl)-6-hydroxy-4-oxo-1,4-dihydropyrimidine-5-carbonyl)pyrrolidin-3-yl)benzonitrile]: under setting [1], the concentration giving a half-maximal response (EC50) is 0.01 to 10 nM.

For the compound `CCCCc1nc(=O)c(C(=O)N2CCC(c3ccc(F)cn3)C2)c(O)n1-c1c(OC)cccc1OC` (single isomer, unassigned) [Example 370, 2-butyl-1-(2,6-dimethoxyphenyl)-5-(3-(5-fluoropyridin-2-yl)pyrrolidine-1-carbonyl)-6-hydroxypyrimidin-4(1H)-one], the EC50 under setting [1] was 0.01 to 10 nM.

As for `CCCCc1nc(=O)c(C(=O)N2CCC(c3ccc(F)cn3)C2)c(O)n1-c1c(OC)cccc1OC` (single isomer, unassigned) [Example 371, 2-butyl-1-(2,6-dimethoxyphenyl)-5-(3-(5-fluoropyridin-2-yl)pyrrolidine-1-carbonyl)-6-hydroxypyrimidin-4(1H)-one], the EC50 under setting [1] was in the range of 0.01 to 10 nM.

As for `CCOCc1nc(=O)c(C(=O)N2CCC(c3ncc(F)cc3F)C2)c(O)n1-c1c(OC)cccc1OC` (single isomer, unassigned) [Example 372, 5-(3-(3,5-difluoropyridin-2-yl)pyrrolidine-1-carbonyl)-1-(2,6-dimethoxyphenyl)-2-(ethoxymethyl)-6-hydroxypyrimidin-4(1H)-one], the EC50 under setting [1] fell in the range of 0.01 to 10 nM.

Compound `CCCCc1nc(=O)c(C(=O)N2CCC(c3ccc(Cl)cn3)C2)c(O)n1-c1c(OC)cccc1OC` (stereo not shown) [Example 1, 2-Butyl-5-(3-(5-chloropyridin-2-yl)pyrrolidine-1-carbonyl)-1-(2,6-dimethoxyphenyl)-6-hydroxypyrimidin-4(1H)-one] came in with a concentration giving a half-maximal response (EC50) of 0.01 to 10 nM.

Turning to `CCCCc1nc(=O)c(C(=O)N2CC[C@H](c3ccccc3)C2)c(O)n1-c1c(C2CC2)cccc1C1CC1` [Example 2, (R)-2-Butyl-1-(2,6-dicyclopropylphenyl)-6-hydroxy-5-(3-phenylpyrrolidine-1-carbonyl)pyrimidin-4(1H)-one], the EC50 under setting [2] fell in the range of 0.01 to 10 nM.

Regarding `CCOCc1nc(=O)c(C(=O)N2CCC(c3ccccn3)C2)c(O)n1-c1c(OC)cccc1OC` (stereo not shown) [Example 3, 1-(2,6-Dimethoxyphenyl)-2-(ethoxymethyl)-6-hydroxy-5-(3-(pyridin-2-yl)pyrrolidine-1-carbonyl)pyrimidin-4(1H)-one], the EC50 under setting [2] fell in the range of 0.01 to 10 nM.

For `COc1cccc(OC)c1-n1c(CCC2CC2)nc(=O)c(C(=O)N2CC[C@@H](c3ccccc3)C2)c1O` [Example 4, (S)-2-(2-Cyclopropylethyl)-1-(2,6-dimethoxyphenyl)-6-hydroxy-5-(3-phenylpyrrolidine-1-carbonyl)pyrimidin-4(1H)-one], the EC50 under setting [2] lay within 0.01 to 10 nM.

Take `COc1ccccc1C1CCN(C(=O)c2c(O)n(-c3c(OC)cccc3OC)c(-c3cncc(C)c3)nc2=O)C1` (stereo not shown) [Example 7, 1-(2,6-dimethoxyphenyl)-6-hydroxy-5-(3-(2-methoxyphenyl)pyrrolidine-1-carbonyl)-2-(5-methylpyridin-3-yl)pyrimidin-4(1H)-one]: the EC50 under setting [2] lay within 0.01 to 10 nM.

As for `COc1cccc(OC)c1-n1c(COC(C)C)nc(=O)c(C(=O)N2CC[C@H](c3ccccc3)C2)c1O` [Example 12, (R)-1-(2,6-dimethoxyphenyl)-6-hydroxy-2-(isopropoxymethyl)-5-(3-phenylpyrrolidine-1-carbonyl)pyrimidin-4(1H)-one], the EC50 under setting [3] fell in the range of 0.01 to 10 nM.

On to `COc1cccc(OC)c1-n1c(CCC(C)C)nc(=O)c(C(=O)N2CC[C@H](c3ccccc3)C2)c1O` [Example 14, (R)-1-(2,6-dimethoxyphenyl)-6-hydroxy-2-isopentyl-5-(3-phenylpyrrolidine-1-carbonyl)pyrimidin-4(1H)-one], for which the concentration giving a half-maximal response (EC50) under setting [3] was 0.01 to 10 nM.

Take `COc1cccc(OC)c1-n1c(COC2CC2)nc(=O)c(C(=O)N2CCC(c3cccc(F)c3)C2)c1O` (stereo not shown) [Example 15, 2-(cyclopropoxymethyl)-1-(2,6-dimethoxyphenyl)-5-(3-(3-fluorophenyl)pyrrolidine-1-carbonyl)-6-hydroxypyrimidin-4(1H)-one]: the EC50 under setting [3] was in the range of 0.01 to 10 nM.

As to `C=CCCc1nc(=O)c(C(=O)N2CC[C@@H](c3ccccc3)C2)c(O)n1-c1c(OC)cccc1OC` [Example 16, (S)-2-(but-3-en-1-yl)-3-(2,6-dimethoxyphenyl)-6-hydroxy-5-(3-phenylpyrrolidine-1-carbonyl)pyrimidin-4(3H)-one], the concentration for a half-maximal effect (EC50) is 0.01 to 10 nM.

With `CCc1cccc(CC)c1-n1c(COC(C)C)nc(=O)c(C(=O)N2CC[C@H](c3ccccc3)C2)c1O` [Example 17, (R)-3-(2,6-diethylphenyl)-6-hydroxy-2-(isopropoxymethyl)-5-(3-phenylpyrrolidine-1-carbonyl)pyrimidin-4(3H)-one], the EC50 under setting [3] is 0.01 to 10 nM.

In turn, `CCOCc1nc(=O)c(C(=O)N2CC[C@H](c3ccccc3)C2)c(O)n1-c1c(OC)cccc1OC` [Example 23, (R)-1-(2,6-dimethoxyphenyl)-2-(ethoxymethyl)-6-hydroxy-5-(3-phenylpyrrolidine-1-carbonyl)pyrimidin-4(1H)-one] showed an EC50 of 0.01 to 10 nM.

As for `COc1cccc(OC)c1-n1c(CCC(C)C)nc(=O)c(C(=O)N2CC[C@@H](c3ccccc3)C2)c1O` [Example 24, (S)-1-(2,6-dimethoxyphenyl)-6-hydroxy-2-isopentyl-5-(3-phenylpyrrolidine-1-carbonyl)pyrimidin-4(1H)-one], the EC50 under setting [3] lay within 0.01 to 10 nM.

On to `C=CCCc1nc(=O)c(C(=O)N2CC[C@H](c3ccccc3)C2)c(O)n1-c1c(OC)cccc1OC` [Example 27, (R)-2-(but-3-en-1-yl)-3-(2,6-dimethoxyphenyl)-6-hydroxy-5-(3-phenylpyrrolidine-1-carbonyl)pyrimidin-4(3H)-one], for which the EC50 was in the range of 0.01 to 10 nM.

`CCOCc1nc(=O)c(C(=O)N2CC[C@@H](c3ccccc3)C2)c(O)n1-c1c(OC)cccc1OC` [Example 29, (S)-1-(2,6-dimethoxyphenyl)-2-(ethoxymethyl)-6-hydroxy-5-(3-phenylpyrrolidine-1-carbonyl)pyrimidin-4(1H)-one] returned an EC50 of 0.01 to 10 nM.

Regarding `COc1cccc(OC)c1-n1c(CC2CC2)nc(=O)c(C(=O)N2CC[C@@H](c3ccccc3)C2)c1O` [Example 31, (S)-2-(cyclopropylmethyl)-3-(2,6-dimethoxyphenyl)-6-hydroxy-5-(3-phenylpyrrolidine-1-carbonyl)pyrimidin-4(3H)-one], the EC50 under setting [3] is 0.01 to 10 nM.

For `COc1cccc(OC)c1-n1c(CC2CC2)nc(=O)c(C(=O)N2CC[C@H](c3ccccc3)C2)c1O` [Example 32, (R)-2-(cyclopropylmethyl)-3-(2,6-dimethoxyphenyl)-6-hydroxy-5-(3-phenylpyrrolidine-1-carbonyl)pyrimidin-4(3H)-one], under setting [3], the EC50 was in the range of 0.01 to 10 nM.

Values taken from patent US10590113B2, “6-hydroxy-4-oxo-1,4-dihydropyrimidine-5-carboxamides as APJ agonists” (priority 2016, dated 2020).
